# Laboratory results reported in paper PMC9834298, “Prolyl-tRNA synthetase as a novel therapeutic target in multiple myeloma” (Blood Cancer Journal, 2023).
# Legend:
# [1] = molecular target: T1, human prolyl-tRNA synthetase (ProRS domain of GluProRS) (Homo sapiens, UniProt P07814); assay: TR-FRET ligand displacement with […] ATP; assay type: binding
# T1 construct: gene EPRS1; recombinant human ProRS
# T1 sequence (P07814 998-1512): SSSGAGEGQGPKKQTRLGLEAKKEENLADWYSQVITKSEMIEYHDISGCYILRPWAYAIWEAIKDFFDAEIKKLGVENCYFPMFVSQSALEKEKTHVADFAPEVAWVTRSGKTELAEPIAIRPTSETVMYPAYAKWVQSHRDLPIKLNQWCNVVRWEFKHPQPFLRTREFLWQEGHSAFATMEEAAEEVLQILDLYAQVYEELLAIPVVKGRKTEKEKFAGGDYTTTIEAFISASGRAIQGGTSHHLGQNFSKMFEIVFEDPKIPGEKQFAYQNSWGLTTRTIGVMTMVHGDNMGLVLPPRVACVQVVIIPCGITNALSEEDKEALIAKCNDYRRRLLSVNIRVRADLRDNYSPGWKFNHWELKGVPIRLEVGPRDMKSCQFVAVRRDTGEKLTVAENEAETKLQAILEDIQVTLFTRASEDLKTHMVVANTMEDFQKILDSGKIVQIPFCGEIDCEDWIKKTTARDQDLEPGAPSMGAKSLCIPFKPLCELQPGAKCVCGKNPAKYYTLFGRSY
# [2] = molecular target: T1, human prolyl-tRNA synthetase (ProRS domain of GluProRS); assay: TR-FRET ligand displacement with […] proline; crystal structure with proline; assay type: binding
structure (smiles),measurement,setting,value
"O=C(CC1NCCCC1O)Cn1cnc2cc(Br)c(Cl)cc2c1=O (centres unmarked) [HFG, Halofuginone]",Kd,[1],0.19 nM
O=C(NC1Cc2ccccc2C1)c1nccnc1NC(=O)N1CCCCC1 [NCP26],Kd,[2],0.35 nM
